Test results as given in US20170042890A1, “METHODS OF REDUCING DECLINE IN VITAL CAPACITY” (Cytokinetics, Inc., priority 2014, published 2017).

Columns and labels:
patients with ALS [1] = assay: BENEFIT-ALS clinical trial: Maximum Voluntary Ventilation (MVV); type: in vivo, human
Experimental: (§1) BENEFIT-ALS was a multi-national, randomized, stratified, double-blind, placebo-controlled, parallel-group study of tirasemtiv in patients with ALS. The study consisted of a screening period, an open-label/lead-in period, and a double-blind treatment period. Following screening, eligible patients received open-label tirasemtiv, 125 mg BID, for 7 days. Patients who tolerated the 7-day lead-in period were randomized in a 1:1 ratio to tirasemtiv or placebo. Over the first 3 weeks of double-blind treatment, patients randomized to tirasemtiv had their TDD up-titrated as follows: 250 mg for 7 days, then 375 mg for 7 days, then 500 mg for 7 days. […] However, in such cases, dose escalation was re-attempted at least one additional time. The highest tolerable tirasemtiv dose for each individual patient was the dose that patient received for the remaining 9 weeks (i.e., the maximum tolerated dose [MTD] phase) of the study. Patients randomized to placebo underwent a corresponding dummy dose titration.
(§2) Randomization was stratified by riluzole use. […] Clinical assessments occurred every 4 weeks during double-blind treatment; patients also returned for follow-up evaluations at 1 and 4 weeks after their final dose of double-blind study medication (FIG. 1).
(§3) The secondary objectives included assessments of the effect of tirasemtiv versus placebo on measures of respiratory function (Maximum Voluntary Ventilation (MVV), Sniff Nasal Inspiratory Pressure (SNIP), SVC) and skeletal muscle function including handgrip fatigue and muscle-strength mega-score (i.e., the average z-score for muscle strength measurements across the following tested bilateral muscle groups: elbow flexion, wrist extension, knee extension, ankle dorsiflexion, and handgrip)). Secondary endpoints included the changes from baseline in each of the above mentioned measures (MVV, SNIP, SVC, and muscle-strength mega-score) for the Modified FAS, and the slope of each of the measures from baseline to Week 12 for the Modified FAS.
(§4) Eligible patients were males and females, 18 years of age and older, with a diagnosis of familial or sporadic ALS and meeting the World Federation of Neurology El Escorial criteria of definite ALS, probable ALS, laboratory-supported probable ALS, or possible ALS. Patients were to have an upright SVC>50% of predicted for age, height, and sex, a diminished, but measurable, maximum voluntary grip strength in at least one hand (i.e., between 10-50 pounds for females and 10-70 pounds for males), and at least 4 of the 12 ALSFRS-R questions were to have been scored as a 2 or 3. Patients were to be able to swallow tablets without crushing, and in the opinion of the investigator, were expected to do so for the duration of the study. If the patient needed a caregiver, the caregiver was to be able to observe the patient's status. Clinical laboratory results were to be either within their respective normal ranges or if outside the normal range, deemed not clinically significant by the investigator. […] Patients not taking riluzole prior to study entry were not permitted to take riluzole at any dose during the course of the study.
(§5) Safety data presented were based on the safety analysis set, defined as all patients who received at least 1 dose of double-blind study drug. Of the 605 randomized patients, 596 (295 placebo, 301 tirasemtiv) received at least 1 dose of double-blind study drug and were included in the safety analysis set. Data for the primary and secondary efficacy endpoints were analyzed with the Modified FAS. This analysis set included all patients who received at least 1 dose of double-blind study drug and had at least 1 efficacy assessment during the double-blind treatment period, and excluded 156 patients who were randomized in blocks containing patients affected by a study drug assignment error in which 58 patients randomized to and treated with double-blind tirasemtiv were dispensed double-blind placebo instead. […]

patients with ALS [2] = assay: BENEFIT-ALS clinical trial: muscle strength mega-score; type: in vivo, human; conditions: for Muscle strength mega-score change from baseline (LS mean): based on percent change from baseline across several muscle groups
Experimental: as §1, §2, §3, §4, §5

[3] = tested on: fast skeletal muscle troponin complex; conditions: cited from earlier work

SMILES: C#Cc1cnc2nc(O)n(C(CC)CC)c2n1 [Tirasemtiv, 6-ethynyl-1-(pentan-3-yl)-1H-imidazo[4,5-b]pyrazin-2(3H)one]
- MVV slope from baseline to Week 12 (patients with ALS [1]; Modified FAS N=178): −0.0567
- MVV change from baseline (LS mean) (patients with ALS [1]; Week 4, Modified FAS N=178): -2.89 L/min
- MVV change from baseline (LS mean) (patients with ALS [1]; Week 8, Modified FAS N=178): -2.14 L/min
- MVV change from baseline (LS mean) (patients with ALS [1]; Week 12, Modified FAS N=178): -5.45 L/min
- MVV versus placebo, in words (patients with ALS [1]; human, in vivo): no statistically significant difference between treatment groups
- MVV difference in slope (tirasemtiv vs placebo) (patients with ALS [1]; p=0.8799): 0.0044
- Muscle strength mega-score slope from baseline to Week 12 (patients with ALS [2]; Modified FAS N=178): −0.1104
- Muscle strength mega-score change from baseline (LS mean) (patients with ALS [2]; Week 4): −4.36
- Muscle strength mega-score change from baseline (LS mean) (patients with ALS [2]; Week 8): −7.43
- Muscle strength mega-score change from baseline (LS mean) (patients with ALS [2]; Week 12): −10.78
- Muscle strength mega-score difference in slope (tirasemtiv vs placebo) (patients with ALS [2]; p=0.0158): 0.1647
- Muscle strength mega-score decline versus placebo, in words (patients with ALS [2]; p=0.0158 for the difference in slope): declined more slowly
- Activity on fast skeletal muscle troponin complex [3]: highly selective activator
- Rate of calcium release from fast skeletal TnC [3]: slows the rate of calcium release
